In the NIST ThermoML archive (doi:10.1016/j.jct.2006.09.001):
Where “and” joins values, the source holds several entries; their conditions need not be identical. Equal entries are not always repeated.

Tests used:
[1] = for Normal melting temperature: DTA
[2] = Molar enthalpy of transition or fusion; conditions: Crystal; DSC

OC[c-]1cccc1.[Fe+2].c1cc[cH-]c1 [(hydroxymethyl)ferrocene]
[1]
Conditions	vapor or sublimation pressure
313.3 K, Crystal	0.00011 kPa
316.7 K, Crystal	0.00015 kPa
320.4 K, Crystal	0.00025 kPa
323.3 K, Crystal	0.00036 kPa
327.3 K, Crystal	0.00056 kPa
330.4 K, Crystal	0.00079 kPa and 0.00078 kPa
333.7 K, Crystal	0.00116 kPa
333.8 K, Crystal	0.00111 kPa
335.9 K, Crystal	0.0015 kPa
336.2 K, Crystal	0.00149 kPa
339.8 K, Crystal	0.00218 kPa
341.1 K, Crystal	0.00254 kPa
342 K, Crystal	0.0029 kPa
343.3 K, Crystal	0.00329 kPa
346 K, Crystal	0.00416 kPa
347.3 K, Crystal	0.00468 kPa
347.4 K, Crystal	0.00492 kPa
353.2 K, Liquid	0.00788 kPa
355.2 K, Liquid	0.00938 kPa
357.3 K, Liquid	0.0104 kPa
358.9 K, Liquid	0.01181 kPa
359.6 K, Liquid	0.01286 kPa
361.6 K, Liquid	0.01452 kPa
363.4 K, Liquid	0.01668 kPa
364.7 K, Liquid	0.01879 kPa
366.1 K, Liquid	0.02236 kPa
366.5 K, Liquid	0.02159 kPa
368.9 K, Liquid	0.02708 kPa
369 K, Liquid	0.02499 kPa
370.5 K, Liquid	0.02709 kPa
371.8 K, Liquid	0.03178 kPa
372.5 K, Liquid	0.03208 kPa
374 K, Liquid	0.03745 kPa
375.6 K, Liquid	0.03813 kPa
377 K, Liquid	0.04507 kPa
379.7 K, Liquid	0.05509 kPa
383.7 K, Liquid	0.06949 kPa
385 K, Liquid	0.07524 kPa
386.8 K, Liquid	0.08377 kPa
389.6 K, Liquid	0.09595 kPa
393.7 K, Liquid	0.1301 kPa

Conditions	Normal melting temperature [°C]
[1], Crystal	79.1

Conditions	Molar enthalpy of transition or fusion [kcal/mol]
[2]	5.66

O=C(c1ccccc1)c1ccc[cH-]1.[Fe+2].c1cc[cH-]c1 [benzoylferrocene]
[1], Transpiration method
Conditions	vapor or sublimation pressure [kPa]
342.3 K, Crystal	2.2e-05
347.2 K, Crystal	3.8e-05
350.2 K, Crystal	5.3e-05
350.9 K, Crystal	5.8e-05
353 K, Crystal	7.5e-05
356 K, Crystal	9.7e-05
357.8 K, Crystal	0.000123
360.3 K, Crystal	0.000164
363 K, Crystal	0.00021
364 K, Crystal	0.000246
366.4 K, Crystal	0.000313
370 K, Crystal	0.000441
371.7 K, Crystal	0.000553
373.6 K, Crystal	0.000674
377.3 K, Crystal	0.000963
379.3 K, Crystal	0.001207
384 K, Liquid	0.00187
386.2 K, Liquid	0.00223
389.1 K, Liquid	0.0027
392.4 K, Liquid	0.00338
396 K, Liquid	0.00428
397.9 K, Liquid	0.00488
402 K, Liquid	0.00618
402.6 K, Liquid	0.00664
404.8 K, Liquid	0.00742
408.8 K, Liquid	0.00977
408.9 K, Liquid	0.00961
410.6 K, Liquid	0.01054
413.6 K, Liquid	0.01254
416.8 K, Liquid	0.01548
419.7 K, Liquid	0.01891
423.3 K, Liquid	0.02256
426.6 K, Liquid	0.02806
429.6 K, Liquid	0.03229

Conditions	Normal melting temperature [°C]
[1], Crystal	109.5

Conditions	Molar enthalpy of transition or fusion [kcal/mol]
[2]	7.15

[Fe+2].c1cc[cH-]c1.c1ccc(C[c-]2cccc2)cc1 [benzylferrocene]
[1], Crystal
Conditions	vapor or sublimation pressure [kPa]
311.7 K	1.2e-05
313 K	1.3e-05
318 K	2.7e-05
323.3 K	5.2e-05
325.1 K	6.4e-05
325.3 K	6.5e-05
327.2 K	8.6e-05
331.3 K	0.000132
331.9 K	0.000152
333.3 K	0.00017
335.9 K	0.000236
338.4 K	0.000303
338.9 K	0.000323
341.3 K	0.000442

[1], Liquid, Transpiration method
Conditions	vapor or sublimation pressure [kPa]
350.7 K	0.00111
352.9 K	0.00129
356.9 K	0.00181
361 K	0.00247
365 K	0.00332
369 K	0.0046
373.1 K	0.00602
377.1 K	0.0082

Conditions	Normal melting temperature [°C]
[1], Crystal	76.1

Conditions	Molar enthalpy of transition or fusion [kcal/mol]
[2]	5.66

[CH]1C=CC=C1.[CH]1C=CC=C1.[Fe] [ferrocene]
[1], Crystal, Transpiration method
Conditions	vapor or sublimation pressure
289.7 K	0.00041 kPa
299.6 K	0.00116 kPa
303.5 K	0.00169 kPa
303.6 K	0.00172 kPa
307.5 K	0.00249 kPa
312.5 K	0.00388 kPa
317.6 K	0.00605 kPa
322.6 K	0.00945 kPa
322.7 K	0.00932 kPa
327.6 K	0.014 kPa
332.8 K	0.02131 kPa and 0.02096 kPa
337.9 K	0.03024 kPa
342.9 K	0.04379 kPa
348 K	0.06337 kPa
353.1 K	0.09205 kPa
358.3 K	0.1334 kPa
363.4 K	0.1803 kPa

Conditions	Normal melting temperature [°C]
[1], Crystal	174.7

Conditions	Molar enthalpy of transition or fusion [kcal/mol]
[2]	4.37
